Measured values from US20190187148A1, “BIOMOLECULAR INTERACTION DETECTION DEVICES AND METHODS” (The Regents of the University of California, priority 2013, published 2019).
Read-outs that look alike come from different tables or passages of the source.

Test system: streptavidin
Experimental: The fluid channel was at first flown with Tris buffer from syringe A into the device 400 received at the corresponding inlet 411.
The acquired signals were measured from the drain current of the exemplary FET 432. […] This was similarly repeated with 1 mM streptavidin protein in the Tris buffer from syringe B. For example, 20 mM Tris buffer (pH=7.4) was prefilled in the channel and then 1 mM avidin was flowed in the 20 mM Tris buffer in the channel.

## O=C(O)CCCC[C@@H]1SC[C@@H]2NC(=O)N[C@@H]21 [biotin]
pre-mixed 0.2 mM streptavidin with 4 mM biotin (1:20) in Tris buffer
  binding indicated by FET signal waveform: some biotin molecules have bonded with streptavidin
pre-mixed 1 mM streptavidin with 4 mM biotin in Tris buffer
  binding indicated by FET signal waveform: streptavidin and biotin bind together
